The text below walks through data of US20220119375A1, “3-ARYLOXY-3-ARYL-PROPYLAMINE COMPOUND AND USES THEREOF” (Zhangzhou Pien Tze Huang Pharmaceutical Co., Ltd., priority 2018, published 2022).

The target of one data set is T1, human TRPA1 channel (Homo sapiens, UniProt O75762).
T1 construct: expressed in transfected cells; host or cells: HEK293
Nature of the data set: manual patch clamp detection of TRPA1 inhibitory activity. The format is cell-based. The conditions noted are these: for IC50: HEK293 stably expressing human TRPA1, 100 μM AITC, +100 mV. The method, then: The HEK293 cell line stably expressing human TRPA1 channel was placed in T75 culture flask with DMEM medium containing 15 μg/mL Blasticidin S HCl, 200 μg/mL Hygromycin B and 10% FBS, and cultured in incubator at 37° C. and 5% CO2. When the cell density reached about 80%, the culture medium was removed, the residue was rinsed with phosphate buffered saline (PBS) without calcium and magnesium. 2 mL of trypsin was added to digest for 2 minutes, and 8 mL of culture medium was added to terminate the digestion. The cells were collected to 15 mL centrifuge tube and centrifuged at 800 rpm for 3 min. After the supernatant was removed, an appropriate volume of extracellular fluid was added to re-suspend the cells.
In manual patch clamp detection, HEKA system (Patch Master software) was used together with EPC-10 amplifier to record the whole cell current of TRPA1 stably transfected cell line at room temperature. intracellular fluid formulation for whole cell recording was as follows (mM): 140 CsCl, 10 HEPES, 5 EGTA, 0.1 CaCl2, 1 MgCl2 (pH 7.2, osmotic pressure 295-300 mOsm); Ca^2+-free extracellular fluid formulation for recording was as follows (mM): 140 NaCl, 5 KCl, 0.5 EGTA, 1 MgCl2, 10 Glucose, 10 HEPES (pH 7.4, osmotic pressure 300-310 mOsm). Glass microelectrode resistance used for patch clamp recording was 2-4 MΩ, the sampling frequency was 10 kHz, the filter frequency was 2.9 kHz, the cell clamp was 0 mV, and the voltage stimulation command (channel protocol) was a linear voltage from −100 mV to +100 mV for 300 ms, then restored to 0 mV clamping potential. The recording was performed every 2 s. The hTRPA1 current was induced by 100 μM AITC. To ensure the accuracy of current recording, the series resistance was used for 60% compensation during recording.
Data recording and current amplitude measurement export were completed by Patch Master software. Cells with sealing impedance lower than 500 MΩ, w were not included in the statistics. The original current data were corrected by software for leakage reduction, and the hTRPA1 current amplitude was measured at +100 mV. The compound dose-effect curve and IC50 were fitted and calculated by GraphPad Prism 5.02 (GraphPad Software, San Diego, Calif.).
In general terms: The patch-clamp technique gives a direct electrical read-out from membranes.

A short description of data set [1]: Pharmacokinetic test in rat. The class given is in vivo. The conditions noted are these: for bioavailability: oral, calculated on AUC(0-∞); for half-life: read-out: T½ (converted). As for the experimental part:
A certain amount of sample was weighed and dissolved in deionized water to prepare 1 mg/mL of solution. Male SD rats were used as test animals. The dose of single intravenous (IV) injection was 2 mg/kg, and the dose of oral (PO) administration was 10 mg/kg. Each group had three rats. The rats in oral group were fasted for 10-14 hours before administration, and were fed 4 hours after administration. Animal blood collection time points were as follows: before administration, and 5 min, 15 min, 30 min, 1 h, 2 h, 4 h, 6 h, 8 h, and 24 h after administration for intravenous administration; before administration, and 15 min, 30 min, 1 h, 2 h, 4 h, 6 h, 8 h and 24 h after administration for oral administration. About 0.25 mL of blood was collected via the jugular vein from each animal, and heparin sodium was used for anticoagulation. After collecting the blood samples, the blood samples were placed on ice and centrifuged to separate the plasma (centrifugation conditions: 8000 rpm, 6 min, 4° C.). The collected plasma was stored at −80° C. before analysis. 50 μL of plasma sample was taken into 1.5 mL of centrifuge tube, 250 μL of internal standard solution was added, and the same volume of methanol rather than internal standard solution was added in the blank group. The mixture was vortexed and mixed, centrifuged at 14,000 rpm for 5 min, 200 μL of supernatant was taken into 96-well sample plate, and the LC-MS/MS was used for sample analysis. In the linear regression analysis, the peak area was taken as the y-axis and the drug concentration was taken as the x-axis. The linear relationship between the peak area ratio and the concentration was expressed by the correlation coefficient (R) obtained from the regression equation of the compound. According to the blood concentration data of the drug, the pharmacokinetic calculation software WinNonlin7.0 non-compartmental model was used to calculate the pharmacokinetic parameters of the test drug.
Internal standard working solution: a certain amount of tolbutamide internal standard stock solution with a concentration of 490,000 ng/mL was taken into a volumetric flask with a certain volume, diluted to a desired volume with methanol and mixed well to obtain the internal standard working solution with a concentration of 200 ng/mL.

Data set [2] concerns ICR mice, acetic acid writhing pain model. Description: mice acetic acid writhing pain model. The class given is in vivo, mouse. As to conditions: for number of appearance of writhing reaction: within 30 min, saline group 49 times. The method, then: Male ICR mice, weighed 22-25 g, were fasted but allowed to drink water freely for 2 h before administration. All ICR mice were weighed and grouped randomly, and the number of animals in each group was >10. […] The test compound was IC-1 (the compound prepared in Example 9), and the administration dosages were 5 mg/kg and 10 mg/kg. […] When concave abdomen, stretched trunk and hind claw, and high buttocks appeared, one number point was recorded. […] After administration, the fewer visceral pains in the mice were, the stronger the analgesic effect of the compound was.
(In writhing tests, fewer writhes than in controls are read as antinociception.)

Where two headings read alike, the source gives them in different places.

T1 sequence (O75762 whole entry): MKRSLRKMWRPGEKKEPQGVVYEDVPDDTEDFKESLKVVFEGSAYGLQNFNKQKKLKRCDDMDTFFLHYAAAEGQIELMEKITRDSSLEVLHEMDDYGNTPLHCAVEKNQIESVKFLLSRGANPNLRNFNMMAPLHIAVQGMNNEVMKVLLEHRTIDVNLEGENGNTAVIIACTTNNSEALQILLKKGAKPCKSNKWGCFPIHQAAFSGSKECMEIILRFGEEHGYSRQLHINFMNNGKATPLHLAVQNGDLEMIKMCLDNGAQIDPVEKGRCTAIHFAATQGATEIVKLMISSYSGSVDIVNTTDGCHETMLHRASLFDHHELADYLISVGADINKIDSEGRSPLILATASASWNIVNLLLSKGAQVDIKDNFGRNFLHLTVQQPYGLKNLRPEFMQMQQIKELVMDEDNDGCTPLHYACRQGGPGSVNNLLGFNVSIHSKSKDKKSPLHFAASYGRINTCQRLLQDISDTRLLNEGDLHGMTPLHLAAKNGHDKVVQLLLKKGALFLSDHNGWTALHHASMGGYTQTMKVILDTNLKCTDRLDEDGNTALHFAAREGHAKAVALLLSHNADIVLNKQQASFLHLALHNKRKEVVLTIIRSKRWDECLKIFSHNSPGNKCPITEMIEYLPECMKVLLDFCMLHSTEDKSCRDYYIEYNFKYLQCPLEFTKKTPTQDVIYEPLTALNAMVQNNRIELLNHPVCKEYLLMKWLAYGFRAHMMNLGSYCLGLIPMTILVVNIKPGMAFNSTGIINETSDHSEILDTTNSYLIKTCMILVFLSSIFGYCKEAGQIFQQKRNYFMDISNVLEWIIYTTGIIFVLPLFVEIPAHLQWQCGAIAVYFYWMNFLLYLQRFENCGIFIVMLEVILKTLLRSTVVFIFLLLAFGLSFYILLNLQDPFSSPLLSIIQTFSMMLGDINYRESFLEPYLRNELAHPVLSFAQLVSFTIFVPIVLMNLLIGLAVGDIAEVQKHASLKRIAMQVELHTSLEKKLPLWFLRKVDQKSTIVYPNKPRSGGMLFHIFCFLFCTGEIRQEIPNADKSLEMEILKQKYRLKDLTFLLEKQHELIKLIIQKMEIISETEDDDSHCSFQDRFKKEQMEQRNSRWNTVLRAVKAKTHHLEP

`CNCC[C@H](Oc1cccc2ccoc12)c1cccs1` [Compound IC-1, (S)-3-(benzofuran-7-yloxy)-N-methyl-3-(thiophen-2-yl)propyl-1-amine]: it took 430 nM to reach half-maximal inhibition at human TRPA1 channel (IC50). The “ratio of IC50 of S configuration of duloxetine to IC50 of the compound, manual patch clamp” value at human TRPA1 channel (manual patch clamp) came to 10.14. Moreover, in data set [1] (male, SD, plasma, 10 mg/kg), the bioavailability was 179%. Further, the AUC(0-inf) (in general, total exposure, with the tail of the curve extrapolated) in data set [1] (male, SD, plasma, IV 2 mg/kg) stood at 449 ng·h/mL; in data set [1] (male, SD, plasma, PO 10 mg/kg) it was 4020 ng·h/mL. Besides, the Cmax (as a rule, the highest concentration seen after dosing) is 170 ng/mL in data set [1] (male, SD, plasma, IV 2 mg/kg) and 266 ng/mL in data set [1] (male, SD, plasma, PO 10 mg/kg). In addition, the Tmax (in general, the time from dosing to the highest level) in data set [1] (male, SD, plasma, IV 2 mg/kg, read-out: Tmax) stood at 0.083 h; in data set [1] (male, SD, plasma, PO 10 mg/kg, read-out: Tmax) it was 3 h. For the same molecule, the half-life in data set [1] (male, SD, plasma, IV 2 mg/kg) was 2.97 h; in data set [1] (male, SD, plasma, PO 10 mg/kg), 5.69 h. For the same molecule, the “writhing number lower than in the saline control group” value in data set [2] (5 mg/kg by gavage) is recorded as 50%. Besides, the “number of appearance of writhing reaction” value in data set [2] (5 mg/kg by gavage) was 20 times; in data set [2] (10 mg/kg by gavage) it was 17 times. Besides, the half effective dose entry in data set [2] (acetic acid writhing, gavage) is given as “less than 5 mg/kg”.
As to `CNCC[C@H](Oc1cccc2ccccc12)c1cccs1` [Duloxetine (S configuration), Duloxetine], at human TRPA1 channel, inhibition was half-maximal at 4360 nM (IC50). The “Tmax” value in data set [1] (PO 10 mg/kg, 10 mg/kg) is 0.833 h; in data set [1] (male, SD, plasma, iv, 2 mg/kg, IV 2 mg/kg, read-out: Tmax), 0.083 h; in data set [1] (male, SD, plasma, po, 10 mg/kg, PO 10 mg/kg, read-out: Tmax) it was 0.83 h. Besides, the bioavailability in data set [1] (male, SD, plasma, 10 mg/kg) is 9.9%. For the same molecule, the AUC(0-inf) was determined as 449 ng·h/mL in data set [1] (male, SD, plasma, IV 2 mg/kg) and 222 ng·h/mL in data set [1] (male, SD, plasma, PO 10 mg/kg). For the same molecule, the Cmax is 177 ng/mL in data set [1] (male, SD, plasma, IV 2 mg/kg) and 76 ng/mL in data set [1] (male, SD, plasma, PO 10 mg/kg). Moreover, the half-life is 1.77 h in data set [1] (male, SD, plasma, IV 2 mg/kg) and 1.81 h in data set [1] (male, SD, plasma, PO 10 mg/kg). Also, the “number of appearance of writhing reaction” value is reported as 27 times in data set [2] (10 mg/kg by gavage) and 21 times in data set [2] (20 mg/kg by gavage).
